pKd: −log10 of the molar value.
Tests used:
Experiment in all cases: KINOMEscan kinase binding assay
[1] = target: JAK1(JH1domain-catalytic); conditions: read-out: JAK1(JH1 domain-catalytic) Kd
Protocol: (§1) Kinase binding assays were performed at Eurofins/DiscoveRx using the general KINOMEscan Protocol (Fabian, M. A. et al., “A small molecule-kinase interaction map for clinical kinase inhibitors,” Nat. Biotechnol. 2005, 23(3):329-36). For most assays, kinase-tagged T7 phage strains were prepared in an E. coli host derived from the BL21 strain. E. coli were grown to log-phase and infected with T7 phage and incubated with shaking at 32° C. until lysis. The lysates were centrifuged and filtered to remove cell debris. The remaining kinases were produced in HEK-293 cells and subsequently tagged with DNA for qPCR detection. Streptavidin-coated magnetic beads were treated with biotinylated small molecule ligands for 30 minutes at room temperature to generate affinity resins for kinase assays. The liganded beads were blocked with excess biotin and washed with blocking buffer (SeaBlock (Pierce), 1% BSA, 0.05% Tween 20, 1 mM DTT) to remove unbound ligand and to reduce nonspecific binding. Binding reactions were assembled by combining kinases, liganded affinity beads, and test compounds in 1× binding buffer (20% SeaBlock, 0.17×PBS, 0.05% Tween 20, 6 mM DTT). All reactions were performed in polystyrene 96-well plates in a final volume of 0.135 mL. The assay plates were incubated at room temperature with shaking for 1 hour and the affinity beads were washed with wash buffer (1×PBS, 0.05% Tween 20). The beads were then re-suspended in elution buffer (1×PBS, 0.05% Tween 20, 0.5 μM non-biotinylated affinity ligand) and incubated at room temperature with shaking for 30 minutes. The kinase concentration in the eluates was measured by qPCR. Results for compounds tested in this assay at a given concentration are reported as “% Ctrl”, where lower numbers indicate stronger binding in the matrix. % Ctrl was calculated as (test compound signal-positive control signal)/(negative control signal-positive control signal)×100. Dissociation constants (Kds) for test compound-kinase interactions were calculated by measuring the amount of kinase captured on the solid support as a function of the test compound concentration.

[2] = target: TYK2(JH1domain-catalytic); conditions: read-out: TYK2(JH1 domain-catalytic) Kd
Protocol: as §1

[3] = target: JAK2(JH1domain-catalytic); conditions: read-out: JAK2(JH1 domain-catalytic) Kd
Protocol: as §1

[4] = target: JAK3(JH1domain-catalytic); conditions: read-out: JAK3(JH1 domain-catalytic) Kd
Protocol: as §1

[5] = target: TYK2(JH2domain-pseudokinase); conditions: read-out: TYK2(JH2 domain-pseudokinase) Kd
Protocol: as §1

[6] = target: JAK1(JH2domain-pseudokinase); conditions: read-out: JAK1(JH2 domain-pseudokinase) Kd
Protocol: as §1

| Structure (SMILES) | pKd [1] | pKd [2] | pKd [3] | pKd [4] | pKd [5] | pKd [6] |
| --- | --- | --- | --- | --- | --- | --- |
| Cc1cc2c([nH]1)/C=C1\C(=O)Nc3c(Cl)cc(cc31)-c1cn(C)nc1COCCN(C)C2=O [Cpd. 7, [3a(4)Z]-20-chloro-6,9,15-trimethyl-10,11,13,15-tetrahydro-2H-1,17-(ethanediylidene)pyrazolo[4,3-m]dipyrrolo[3,2-f:3′,4′-i][1,4]oxazacyclopentadecine-3,8(5H,9H)-dione] | < 5.00 | < 5.00 | < 5.00 | < 5.00 | 9.29 | 7.33 |
| Cc1nc2c([nH]1)/C=C1\C(=O)Nc3c(Cl)cc(cc31)-c1cn(C)nc1COC[C@@H](C)N(C)C2=O [Cpd. 8, [3a(4)Z,10R]-20-chloro-6,9,10,15-tetramethyl-10,11,13,15-tetrahydro-2H-1,17-(ethanediylidene)imidazo[4,5-f]pyrazolo[4,3-m]pyrrolo[3,4-i][1,4]oxazacyclopentadecine-3,8(5H,9H)-dione] | < 5.00 | < 5.00 | < 5.00 | < 5.00 | 6.77 |  |
| Cc1cc2c([nH]1)/C=C1\C(=O)Nc3c(Cl)cc(cc31)-c1[nH]c(C)nc1COC[C@@H](C)N(C)C2=O [Cpd. 9, [3a(4)Z,10R]-20-chloro-6,9,10,15-tetramethyl-10,11,13,16-tetrahydro-2H-1,17-(ethanediylidene)imidazo[4,5-m]dipyrrolo[3,2-f:3′,4′-i][1,4]oxazacyclopentadecine-3,8(5H,9H)-dione] | < 5.00 | < 5.00 | < 5.00 | 5.51 | 9.00 | 6.89 |
| Cc1cc2c([nH]1)/C=C1\C(=O)Nc3c(C#N)cc(cc31)-c1cn(C)nc1COC[C@@H](C)N(C)C2=O [Cpd. 10, [3a(4)Z,10R]-6,9,10,15-tetramethyl-3,8-dioxo-3,5,8,9,10,11,13,15-octahydro-2H-1,17-(ethanediylidene)pyrazolo[4,3-m]dipyrrolo[3,2-f:3′,4′-i][1,4]oxazacyclopentadecine-20-carbonitrile] | < 6.00 |  | < 6.00 | < 6.00 | 7.34 |  |
| Cc1cc2c([nH]1)/C=C1\C(=O)Nc3c(Cl)cc(cc31)-c1cn(C)nc1COC[C@H](C)N(C)C2=O [compound 6, [3a(4)Z,10S]-20-chloro-6,9,10,15-tetramethyl-10,11,13,15-tetrahydro-2H-1,17-(ethanediylidene)pyrazolo[4,3-m]dipyrrolo[3,2-f:3′,4′-i][1,4]oxazacyclopentadecine-3,8(5H,9H)-dione] | < 5.00 | < 5.00 | < 5.00 | < 5.00 | 8.60 | 6.80 |
| Cc1cc2c([nH]1)/C=C1\C(=O)Nc3c(F)cc(cc31)-c1c(nn(C)c1C)COC[C@@H](C)N(C)C2=O [compound 11, [3a(4)Z,10R]-20-fluoro-6,9,10,15,16-pentamethyl-10,11,13,15-tetrahydro-2H-1,17-ethenopyrazolo[4,3-m]dipyrrolo[3,2-f:3′,4′-i][1,4]oxazacyclopentadecine-3,8(5H,9H)-dione] | < 5.00 | < 5.00 | < 5.00 | 5.28 | 8.47 | 6.14 |
| Cc1cc2c([nH]1)/C=C1\C(=O)Nc3c(Cl)cc(cc31)-c1c(nn(C)c1C)COC[C@@H](C)N(C)C2=O [compound 12, [3a(4)Z,10R]-20-chloro-6,9,10,15,16-pentamethyl-10,11,13,15-tetrahydro-2H-1,17-ethenopyrazolo[4,3-m]dipyrrolo[3,2-f:3′,4′-i][1,4]oxazacyclopentadecine-3,8(5H,9H)-dione] | < 5.00 | < 5.00 | < 5.00 | < 5.00 | 8.89 | 6.92 |
| Cc1cc2c([nH]1)/C=C1\C(=O)Nc3c(F)cc(cc31)-c1cn(C)nc1COC[C@@H](C)N(C)C2=O [compound 13, [3a(4)Z,10R]-20-fluoro-6,9,10,15-tetramethyl-10,11,13,15-tetrahydro-2H-1,17-ethenopyrazolo[4,3-m]dipyrrolo[3,2-f:3′,4′-i][1,4]oxazacyclopentadecine-3,8(5H,9H)-dione] | < 5.00 | < 5.00 | < 5.00 | < 5.00 | 9.00 | 6.39 |
